Activity calls are given as the source filed them. On the calls: in the data inactive means no Kd found up to 30 µM.
Legend:
[1] = target: T1, RNA cytidine acetyltransferase (Homo sapiens, UniProt Q9H0A0)
T1 sequence (Q9H0A0 whole entry): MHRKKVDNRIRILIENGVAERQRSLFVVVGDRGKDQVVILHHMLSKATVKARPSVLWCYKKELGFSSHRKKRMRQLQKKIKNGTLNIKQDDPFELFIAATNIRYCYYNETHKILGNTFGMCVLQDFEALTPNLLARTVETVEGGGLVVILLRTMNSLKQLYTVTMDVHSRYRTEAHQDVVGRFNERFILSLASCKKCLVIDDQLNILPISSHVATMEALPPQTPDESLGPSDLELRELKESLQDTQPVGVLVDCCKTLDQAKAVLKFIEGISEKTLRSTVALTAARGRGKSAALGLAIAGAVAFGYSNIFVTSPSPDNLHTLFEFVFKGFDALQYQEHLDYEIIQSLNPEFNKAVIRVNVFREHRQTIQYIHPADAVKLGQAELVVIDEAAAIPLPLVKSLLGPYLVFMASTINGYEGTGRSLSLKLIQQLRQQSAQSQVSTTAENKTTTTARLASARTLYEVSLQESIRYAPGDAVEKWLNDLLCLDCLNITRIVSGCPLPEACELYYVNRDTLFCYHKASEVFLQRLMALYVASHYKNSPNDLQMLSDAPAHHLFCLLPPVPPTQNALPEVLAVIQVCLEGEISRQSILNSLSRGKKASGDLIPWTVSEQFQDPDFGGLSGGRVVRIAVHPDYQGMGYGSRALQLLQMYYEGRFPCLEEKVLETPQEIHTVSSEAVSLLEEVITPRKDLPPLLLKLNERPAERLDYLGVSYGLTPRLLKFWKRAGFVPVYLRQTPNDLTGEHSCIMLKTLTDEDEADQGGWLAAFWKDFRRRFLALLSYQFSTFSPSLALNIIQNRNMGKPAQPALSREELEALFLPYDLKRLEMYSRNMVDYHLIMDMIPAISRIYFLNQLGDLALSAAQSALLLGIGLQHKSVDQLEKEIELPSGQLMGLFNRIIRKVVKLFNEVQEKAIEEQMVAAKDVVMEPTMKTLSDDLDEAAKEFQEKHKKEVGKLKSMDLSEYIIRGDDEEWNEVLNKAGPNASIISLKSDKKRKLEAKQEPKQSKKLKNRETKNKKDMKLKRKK

[2] = target: Serine/threonine-protein kinase MRCK alpha (Homo sapiens, UniProt Q5VT25)
Sequence of Serine/threonine-protein kinase MRCK alpha (Q5VT25 whole entry): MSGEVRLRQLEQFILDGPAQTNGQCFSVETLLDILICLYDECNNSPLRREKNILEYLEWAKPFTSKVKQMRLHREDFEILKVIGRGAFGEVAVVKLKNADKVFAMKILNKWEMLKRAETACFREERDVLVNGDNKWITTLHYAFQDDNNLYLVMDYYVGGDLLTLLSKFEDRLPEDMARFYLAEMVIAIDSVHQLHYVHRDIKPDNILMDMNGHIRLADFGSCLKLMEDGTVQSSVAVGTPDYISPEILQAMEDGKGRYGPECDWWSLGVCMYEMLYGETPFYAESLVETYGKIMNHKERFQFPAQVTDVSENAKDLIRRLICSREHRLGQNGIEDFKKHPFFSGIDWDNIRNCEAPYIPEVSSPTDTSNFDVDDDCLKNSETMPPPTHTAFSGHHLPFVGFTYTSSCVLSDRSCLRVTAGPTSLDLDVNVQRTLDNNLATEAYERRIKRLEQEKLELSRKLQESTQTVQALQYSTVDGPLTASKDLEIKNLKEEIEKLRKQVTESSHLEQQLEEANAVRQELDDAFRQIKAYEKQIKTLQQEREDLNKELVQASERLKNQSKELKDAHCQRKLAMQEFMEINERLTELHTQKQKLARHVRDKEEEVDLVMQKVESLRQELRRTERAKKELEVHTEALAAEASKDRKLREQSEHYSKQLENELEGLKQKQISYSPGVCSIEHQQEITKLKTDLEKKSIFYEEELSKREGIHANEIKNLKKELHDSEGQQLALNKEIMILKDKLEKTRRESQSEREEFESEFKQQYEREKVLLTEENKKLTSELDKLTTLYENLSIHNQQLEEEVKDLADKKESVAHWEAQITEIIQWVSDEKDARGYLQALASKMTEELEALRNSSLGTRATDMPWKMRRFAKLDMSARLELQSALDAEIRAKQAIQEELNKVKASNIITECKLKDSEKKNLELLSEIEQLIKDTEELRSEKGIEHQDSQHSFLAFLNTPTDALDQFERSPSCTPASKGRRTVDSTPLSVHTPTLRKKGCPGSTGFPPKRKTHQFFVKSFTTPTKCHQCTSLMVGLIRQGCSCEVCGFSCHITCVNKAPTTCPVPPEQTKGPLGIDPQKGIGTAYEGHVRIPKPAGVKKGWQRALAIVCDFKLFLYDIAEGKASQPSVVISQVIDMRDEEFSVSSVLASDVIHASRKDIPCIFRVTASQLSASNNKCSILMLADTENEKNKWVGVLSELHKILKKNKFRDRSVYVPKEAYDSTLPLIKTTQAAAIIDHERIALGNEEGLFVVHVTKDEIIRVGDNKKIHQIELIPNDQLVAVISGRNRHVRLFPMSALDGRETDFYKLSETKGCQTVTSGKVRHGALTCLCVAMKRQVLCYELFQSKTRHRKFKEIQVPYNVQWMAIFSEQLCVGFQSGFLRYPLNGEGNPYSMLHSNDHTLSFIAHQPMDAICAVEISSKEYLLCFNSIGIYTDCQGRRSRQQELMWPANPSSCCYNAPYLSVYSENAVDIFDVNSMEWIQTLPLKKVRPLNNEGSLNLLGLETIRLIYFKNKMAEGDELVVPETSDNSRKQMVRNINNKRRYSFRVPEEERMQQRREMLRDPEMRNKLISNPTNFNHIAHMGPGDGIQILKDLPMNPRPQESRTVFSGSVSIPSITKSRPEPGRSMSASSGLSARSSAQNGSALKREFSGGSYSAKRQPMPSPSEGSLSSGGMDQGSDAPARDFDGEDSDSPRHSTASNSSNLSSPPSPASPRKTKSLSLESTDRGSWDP

[3] = target: T2, Membrane-associated tyrosine- and threonine-specific cdc2-inhibitory kinase (Homo sapiens, UniProt Q99640)
T2 sequence (Q99640 whole entry): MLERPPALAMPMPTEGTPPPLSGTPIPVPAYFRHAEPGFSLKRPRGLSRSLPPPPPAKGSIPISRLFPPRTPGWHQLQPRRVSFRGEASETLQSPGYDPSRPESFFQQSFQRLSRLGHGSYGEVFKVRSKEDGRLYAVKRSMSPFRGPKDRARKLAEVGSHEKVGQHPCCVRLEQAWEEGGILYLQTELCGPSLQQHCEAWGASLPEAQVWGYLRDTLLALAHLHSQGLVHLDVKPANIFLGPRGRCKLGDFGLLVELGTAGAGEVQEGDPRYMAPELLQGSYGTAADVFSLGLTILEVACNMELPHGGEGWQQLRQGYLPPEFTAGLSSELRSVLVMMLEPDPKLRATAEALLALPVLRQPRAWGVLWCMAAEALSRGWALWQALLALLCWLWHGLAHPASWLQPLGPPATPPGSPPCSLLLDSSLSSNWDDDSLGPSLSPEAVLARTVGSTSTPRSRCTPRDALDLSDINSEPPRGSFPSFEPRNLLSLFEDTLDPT

dCTP pyrophosphatase 1 = target: T3, dCTP pyrophosphatase 1 (Homo sapiens, UniProt Q9H773)
T3 sequence (Q9H773 whole entry): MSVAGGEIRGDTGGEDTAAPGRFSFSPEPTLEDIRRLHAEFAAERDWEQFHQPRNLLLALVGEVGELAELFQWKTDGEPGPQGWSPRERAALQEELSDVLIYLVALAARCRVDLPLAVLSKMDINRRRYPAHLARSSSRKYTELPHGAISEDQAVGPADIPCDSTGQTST

[4] = target: Mitogen-activated protein kinase 1 (Homo sapiens, UniProt P28482)
Sequence of Mitogen-activated protein kinase 1 (P28482 whole entry): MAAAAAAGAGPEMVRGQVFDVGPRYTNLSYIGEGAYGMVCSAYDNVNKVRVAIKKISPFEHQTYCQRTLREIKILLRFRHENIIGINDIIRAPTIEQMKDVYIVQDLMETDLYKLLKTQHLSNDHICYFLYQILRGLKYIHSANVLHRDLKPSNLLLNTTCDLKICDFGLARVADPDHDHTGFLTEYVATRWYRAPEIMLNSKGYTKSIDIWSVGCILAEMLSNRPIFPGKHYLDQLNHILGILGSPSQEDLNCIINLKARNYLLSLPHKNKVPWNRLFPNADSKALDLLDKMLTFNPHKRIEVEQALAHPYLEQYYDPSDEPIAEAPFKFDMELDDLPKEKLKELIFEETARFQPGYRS

[5] = target: Serine/threonine-protein kinase PAK 2 (Homo sapiens, UniProt Q13177)
Sequence of Serine/threonine-protein kinase PAK 2 (Q13177 whole entry): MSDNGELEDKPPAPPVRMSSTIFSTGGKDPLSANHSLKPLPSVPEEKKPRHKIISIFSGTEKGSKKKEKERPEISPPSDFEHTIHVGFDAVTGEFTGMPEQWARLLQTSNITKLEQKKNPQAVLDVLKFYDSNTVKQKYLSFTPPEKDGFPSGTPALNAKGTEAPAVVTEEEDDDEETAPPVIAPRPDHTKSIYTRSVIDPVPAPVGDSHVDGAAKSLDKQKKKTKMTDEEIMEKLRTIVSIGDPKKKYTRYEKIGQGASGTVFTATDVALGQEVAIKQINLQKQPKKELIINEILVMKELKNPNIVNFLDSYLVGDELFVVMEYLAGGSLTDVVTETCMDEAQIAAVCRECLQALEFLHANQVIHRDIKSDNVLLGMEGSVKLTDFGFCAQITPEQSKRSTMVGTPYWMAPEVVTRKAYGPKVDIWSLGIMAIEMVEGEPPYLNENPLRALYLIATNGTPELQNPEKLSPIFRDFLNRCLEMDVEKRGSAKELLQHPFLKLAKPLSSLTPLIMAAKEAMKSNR

[6] = target: T4, Bifunctional phosphoribosylaminoimidazole carboxylase/phosphoribosylaminoimidazole succinocarboxamide synthetase (Homo sapiens, UniProt P22234)
T4 sequence (P22234 whole entry): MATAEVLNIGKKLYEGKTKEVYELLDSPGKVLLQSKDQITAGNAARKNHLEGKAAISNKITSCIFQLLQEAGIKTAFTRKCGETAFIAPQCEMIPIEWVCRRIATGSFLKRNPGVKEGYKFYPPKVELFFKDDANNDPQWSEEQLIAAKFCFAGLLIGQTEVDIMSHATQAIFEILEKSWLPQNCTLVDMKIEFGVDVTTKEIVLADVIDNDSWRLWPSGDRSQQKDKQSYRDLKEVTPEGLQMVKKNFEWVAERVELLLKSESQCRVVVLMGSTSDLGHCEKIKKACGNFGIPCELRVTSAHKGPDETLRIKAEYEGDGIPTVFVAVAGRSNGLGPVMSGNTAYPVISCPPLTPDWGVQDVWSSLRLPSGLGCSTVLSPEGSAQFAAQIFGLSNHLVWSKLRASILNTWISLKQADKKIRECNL

[7] = target: T5, Very long-chain specific acyl-CoA dehydrogenase, mitochondrial (Homo sapiens, UniProt P49748)
T5 sequence (P49748 whole entry): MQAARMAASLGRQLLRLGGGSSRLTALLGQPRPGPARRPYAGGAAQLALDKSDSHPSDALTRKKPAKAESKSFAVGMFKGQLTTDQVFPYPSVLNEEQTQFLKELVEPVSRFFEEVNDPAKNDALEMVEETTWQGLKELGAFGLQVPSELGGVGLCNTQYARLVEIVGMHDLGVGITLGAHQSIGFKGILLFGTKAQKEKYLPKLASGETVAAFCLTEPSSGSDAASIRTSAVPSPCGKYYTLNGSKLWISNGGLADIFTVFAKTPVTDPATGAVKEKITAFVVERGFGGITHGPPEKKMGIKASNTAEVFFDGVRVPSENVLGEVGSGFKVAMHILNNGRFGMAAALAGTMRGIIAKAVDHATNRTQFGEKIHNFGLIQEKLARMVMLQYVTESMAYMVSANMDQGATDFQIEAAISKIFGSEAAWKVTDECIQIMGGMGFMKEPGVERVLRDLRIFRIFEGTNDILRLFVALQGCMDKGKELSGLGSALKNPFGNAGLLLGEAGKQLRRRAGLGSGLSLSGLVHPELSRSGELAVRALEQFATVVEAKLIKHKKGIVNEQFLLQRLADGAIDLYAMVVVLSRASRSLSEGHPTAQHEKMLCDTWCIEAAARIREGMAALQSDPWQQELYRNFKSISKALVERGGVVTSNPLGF

SMILES | Kd [1] | Kd [2] | Kd [3] | Kd (dCTP pyrophosphatase 1) | Kd [4] | Kd [5] | Kd [6] | Kd [7]
C[C@@H](Oc1cc(C(=O)Nc2ccc(C(=O)N3CCN(C)CC3)cc2)nnc1N)c1c(Cl)ccc(F)c1Cl | > 30 µM (inactive) | > 30 µM (inactive) | > 30 µM (inactive) | > 30 µM (inactive) | > 30 µM (inactive) | > 30 µM (inactive) | > 30 µM (inactive) | > 30 µM (inactive)
Cc1nc2cc(-c3nn(C(C)C)c4ncnc(N)c34)ccc2o1 | > 30 µM (inactive) | > 30 µM (inactive) | > 30 µM (inactive) | > 30 µM (inactive) | > 30 µM (inactive) | > 30 µM (inactive) | > 30 µM (inactive) | > 30 µM (inactive)
Nc1ncnc2c1c(-c1cccc(OCc3ccccc3)c1)cn2[C@H]1C[C@@H](CN2CCC2)C1 [AEW-541] | > 30 µM (inactive) | > 30 µM (inactive) | > 30 µM (inactive) | > 30 µM (inactive) | > 30 µM (inactive) | > 30 µM (inactive) | > 30 µM (inactive) | > 30 µM (inactive)
Cc1nc(NC(=O)N2CCC[C@H]2C(N)=O)sc1-c1ccnc(C(C)(C)C(F)(F)F)c1 [ALPELISIB] | > 30 µM (inactive) | > 30 µM (inactive) | > 30 µM (inactive) | > 30 µM (inactive) | > 30 µM (inactive) | > 30 µM (inactive) | > 30 µM (inactive) | > 30 µM (inactive)
Cc1csc(-c2nnc(Nc3ccc(Oc4ncccc4-c4ccnc(N)n4)cc3)c3ccccc23)c1 [AMG-900] | > 30 µM (inactive) | > 30 µM (inactive) | > 30 µM (inactive) | > 30 µM (inactive) | > 30 µM (inactive) | > 30 µM (inactive) | > 30 µM (inactive) | > 30 µM (inactive)
O=C(Nc1c[nH]nc1-c1nc2cc(CN3CCOCC3)ccc2[nH]1)NC1CC1 [AT-9283] | > 30 µM (inactive) | > 30 µM (inactive) | > 30 µM (inactive) | > 30 µM (inactive) | > 30 µM (inactive) | > 30 µM (inactive) | > 30 µM (inactive) | > 30 µM (inactive)
C=CC(=O)Nc1cc2c(Nc3ccc(F)c(Cl)c3)ncnc2cc1C#CC(C)(C)N1CCN(C)CC1 [AV-412 FREE BASE] | > 30 µM (inactive) | > 30 µM (inactive) | > 30 µM (inactive) | > 30 µM (inactive) | > 30 µM (inactive) | > 30 µM (inactive) | > 30 µM (inactive) | > 30 µM (inactive)
COc1cc([C@@H]2c3cc4c(cc3[C@H](O)[C@H]3COC(=O)[C@@H]23)OCO4)cc(OC)c1OC [AXL-1717] | > 30 µM (inactive) | > 30 µM (inactive) | > 30 µM (inactive) | > 30 µM (inactive) | > 30 µM (inactive) | > 30 µM (inactive) | > 30 µM (inactive) | > 30 µM (inactive)
Cc1cc(C(=O)NOCCO)c(Nc2ccc(I)cc2F)n(C)c1=O [AZD-8330] | > 30 µM (inactive) | > 30 µM (inactive) | > 30 µM (inactive) | > 30 µM (inactive) | > 30 µM (inactive) | > 30 µM (inactive) | > 30 µM (inactive) | > 30 µM (inactive)
Cn1cnc2c(F)c(Nc3ccc(Br)cc3F)c(C(=O)NOCCO)cc21 [BINIMETINIB] | > 30 µM (inactive) | > 30 µM (inactive) | > 30 µM (inactive) | > 30 µM (inactive) | > 30 µM (inactive) | > 30 µM (inactive) | > 30 µM (inactive) | > 30 µM (inactive)

Other lines, results leading:

Kd [1] | Kd [2] | Kd [3] | Kd (dCTP pyrophosphatase 1) | Kd [4] | Kd [5] | Kd [6] | Kd [7] | SMILES
> 30 µM (inactive) | > 30 µM (inactive) | > 30 µM (inactive) | > 30 µM (inactive) | > 30 µM (inactive) | > 30 µM (inactive) | > 30 µM (inactive) | > 30 µM (inactive) | CCn1c(C(=O)N(C2CC2)C2CC2)cc2c3c(ncn3C)c(Nc3cc(C)n(C)n3)nc21 [BMS-911543]
> 30 µM (inactive) | > 30 µM (inactive) | > 30 µM (inactive) | > 30 µM (inactive) | > 30 µM (inactive) | > 30 µM (inactive) | > 30 µM (inactive) | > 30 µM (inactive) | COc1cc2ncnc(Oc3cccc(NC(=O)Nc4cc(C(C)(C)C(F)(F)F)on4)c3)c2cc1OC [CEP-32496]
> 30 µM (inactive) | > 30 µM (inactive) | > 30 µM (inactive) | > 30 µM (inactive) | > 30 µM (inactive) | > 30 µM (inactive) | > 30 µM (inactive) | > 30 µM (inactive) | Cc1cc(Nc2ncc(Cl)c(Nc3ccccc3S(=O)(=O)C(C)C)n2)c(OC(C)C)cc1C1CCNCC1 [CERITINIB]
> 30 µM (inactive) | > 30 µM (inactive) | > 30 µM (inactive) | > 30 µM (inactive) | > 30 µM (inactive) | > 30 µM (inactive) | > 30 µM (inactive) | > 30 µM (inactive) | COc1c(OCCCN2CCOCC2)ccc2c1N=C(NC(=O)c1cnc(N)nc1)N1CCN=C21 [COPANLISIB]
> 30 µM (inactive) | > 30 µM (inactive) | > 30 µM (inactive) | > 30 µM (inactive) | > 30 µM (inactive) | > 30 µM (inactive) | > 30 µM (inactive) | > 30 µM (inactive) | COCC(=O)NC/C=C/c1ccc2ncnc(Nc3ccc(Oc4ccc(C)nc4)c(C)c3)c2c1 [CP-724714]
> 30 µM (inactive) | > 30 µM (inactive) | > 30 µM (inactive) | > 30 µM (inactive) | > 30 µM (inactive) | > 30 µM (inactive) | > 30 µM (inactive) | > 30 µM (inactive) | C#Cc1cccc(Nc2ncnc3cc(OC)c(OCCCCCCC(=O)NO)cc23)c1 [CUDC-101]

Source: ChEMBL document CHEMBL3991601, “The target landscape of clinical kinase drugs” (Science, 2017)
